Results on 24 compounds are retold here after patent US10035760B2, “Inhibitors of human immunodeficiency virus replication” (priority 2013, dated 2018).

Where two headings read alike, the source gives them in different places. Some results are limits rather than exact numbers.

This assay has as its system recombinant NL4-3 virus (Renilla luciferase) in MT-2 cells. In words: HIV cell culture assay (antiviral activity, luciferase readout in infected MT-2 cells). In kind it is cell-based. The conditions noted are these: Renilla. A digest of the protocol: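 EC50 derived via median-effect equation from luciferase activity in MT-2 cells after 4–5 day infection, compound serially diluted. Virus: recombinant NL4-3 with Renilla luciferase replacing part of nef, made in 293T cells.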

[1] abbreviates: NL43, read-out: Activity, antiviral activity class, recombinant NL4-3 Renilla luciferase virus in MT-2 cells.
Where [2] appears, read: NL43, recombinant NL4-3 Renilla luciferase virus in MT-2 cells.

`Cc1ccccc1S(=O)(=O)NC(=O)N[C@@H](Cc1cc(F)cc(F)c1)C(=O)N(C)c1cccc2cnccc12` [Example CA-110, (S)-3-(3,5-difluorophenyl)-N-(isoquinolin-5-yl)-N-methyl-2-(3-(o-tolylsulfonyl)ureido)propanamide]: the EC50 under setting [1] lay within 100 to 1000 nM.

For the compound `Cc1ccccc1S(=O)(=O)NC(=O)N[C@@H](Cc1cc(F)cc(F)c1)C(=O)N(C)c1ccc2cccnc2c1` [Example CA-104, (S)-3-(3,5-difluorophenyl)-N-methyl-N-(quinolin-7-yl)-2-(3-(o-tolylsulfonyl)ureido)propanamide], under setting [1], the EC50 was in the range of 100 to 1000 nM.

In the case of `Cc1ccccc1S(=O)(=O)NC(=O)N[C@@H](Cc1cccc(C(F)(F)F)c1)C(=O)N(C)c1ccc2c(c1)OCO2` [Example 71, (S)—N-(benzo[d][1,3]dioxol-5-yl)-N-methyl-2-(3-(o-tolylsulfonyl)ureido)-3-(3-(trifluoromethyl)phenyl)propanamide], under setting [1], the EC50 was 100 to 1000 nM.

For `CCN(C(=O)[C@H](Cc1ccccc1)NC(=O)NS(=O)(=O)c1cccc(Br)c1)c1ccc(OC)cc1` [Example 112, (S)-2-(3-((3-bromophenyl)sulfonyl)ureido)-N-ethyl-N-(4-methoxyphenyl)-3-phenylpropanamide], the EC50 under setting [1] is less than 100 nM.

For the compound `CN(C(=O)[C@H](Cc1ccccc1)NC(=O)NS(=O)(=O)c1cc(Cl)cc(Cl)c1)c1ccc2c(c1)OCO2` [Example 11, (S)—N-(benzo[d][1,3]dioxol-5-yl)-2-(3-((3,5-dichlorophenyl)sulfonyl)ureido)-N-methyl-3-phenylpropanamide], the EC50 under setting [1] is 100 to 1000 nM.

As for `Cc1ccccc1S(=O)(=O)NC(=O)N[C@@H](Cc1cc(F)cc(F)c1)C(=O)N(C)c1ccc2cc[nH]c(=O)c2c1` [Example CA-103, (S)-3-(3,5-difluorophenyl)-N-methyl-N-(1-oxo-1,2-dihydroisoquinolin-7-yl)-2-(3-(o-tolylsulfonyl)ureido)propanamide], the EC50 is, setting by setting: under setting [1], 1000 to 10000 nM; under setting [2], 1330 nM.

Consider `Cc1ccccc1S(=O)(=O)NC(=O)N[C@@H](Cc1ccccc1)C(=O)N(C)c1ccc2nccnc2c1` [Example CA-75, (S)—N-methyl-3-phenyl-N-(quinoxalin-6-yl)-2-(3-(o-tolylsulfonyl)ureido)propanamide], for which the EC50 under setting [1] is 100 to 1000 nM.

As to `CN(C(=O)[C@H](Cc1cc(F)cc(F)c1)NC(=O)NS(=O)(=O)c1cc(F)ccc1F)c1ccc2scnc2c1` [Example ZY-14, (S)—N-(benzo[d]thiazol-5-yl)-3-(3,5-difluorophenyl)-2-(3-((2,5-difluorophenyl)sulfonyl)ureido)-N-methylpropanamide], the EC50 under setting [1] lay within 100 to 1000 nM.

Consider `CN(C(=O)[C@H](Cc1ccccc1)NC(=O)NS(=O)(=O)Cc1ccc(Cl)cc1)c1ccc2c(c1)OCO2` [Example 109, (S)—N-(benzo[d][1,3]dioxol-5-yl)-2-(3-((4-chlorobenzyl)sulfonyl)ureido)-N-methyl-3-phenylpropanamide], for which the EC50 under setting [1] lay within 100 to 1000 nM.

In the case of `Cc1ccccc1S(=O)(=O)NC(=O)N[C@@H](Cc1ccccc1)C(=O)N(C)c1ccc(Cl)cc1` [Example 164, (S)—N-(4-chlorophenyl)-N-methyl-3-phenyl-2-(3-(o-tolylsulfonyl)ureido)propanamide], the EC50 under setting [1] lay within 100 to 1000 nM.

For the compound `COc1ccc(N(Cc2ccncc2)C(=O)[C@H](Cc2ccccc2)NC(=O)NS(=O)(=O)c2ccccc2C)cc1` [Example ZY-4, (S)—N-(4-methoxyphenyl)-3-phenyl-N-(pyridin-4-ylmethyl)-2-(3-(o-tolylsulfonyl)ureido)propanamide], the EC50 under setting [1] lay in the range of 1000 to 10000 nM.

Consider `CCN(C(=O)[C@H](Cc1ccccc1)NC(=O)NS(=O)(=O)c1cccc(-c2csc3ccccc23)c1)c1ccc(OC)cc1` [Example 153, (S)-2-(3-((3-(benzo[b]thiophen-3-yl)phenyl)sulfonyl)ureido)-N-ethyl-N-(4-methoxyphenyl)-3-phenylpropanamide], for which the EC50 under setting [1] fell in the range of 100 to 1000 nM.

`Cc1cccc(N(C)C(=O)[C@H](Cc2ccccc2)NC(=O)NS(=O)(=O)c2ccccc2C)c1` [Example 163, (S)—N-methyl-3-phenyl-N-(m-tolyl)-2-(3-(o-tolylsulfonyl)ureido)propanamide]: the EC50 under setting [1] lay within 100 to 1000 nM.

In the case of `COc1ccc(C[C@H](NC(=O)NS(=O)(=O)c2ccccc2C)C(=O)N(C)c2ccc3c(c2)OCO3)cc1` [Example 56, (S)—N-(benzo[d][1,3]dioxol-5-yl)-3-(4-methoxyphenyl)-N-methyl-2-(3-(o-tolylsulfonyl)ureido)propanamide], the EC50 under setting [1] was 1000 to 10000 nM.

`Cc1ccc(F)cc1S(=O)(=O)NC(=O)N[C@@H](Cc1ccccc1)C(=O)N(C)c1ccc2c(c1)OCO2` [Example 16, (S)—N-(benzo[d][1,3]dioxol-5-yl)-2-(3-((5-fluoro-2-methylphenyl)sulfonyl)ureido)-N-methyl-3-phenylpropanamide]: the EC50 under setting [1] was less than 100 nM.

`Cc1ccccc1S(=O)(=O)NC(=O)N[C@@H](Cc1ccccc1)C(=O)N(C)c1ccc(O)c(NC=O)c1` [Example CA-90, (S)—N-(3-formamido-4-hydroxyphenyl)-N-methyl-3-phenyl-2-(3-(o-tolylsulfonyl)ureido)propanamide]: the EC50 under setting [1] is 1000 to 10000 nM.

On to `COc1ccc(N(C)C(=O)[C@H](Cc2ccccc2)NC(=O)NS(=O)(=O)c2ccccc2C)c(C)c1` [Example JB-83, (S)—N-(4-methoxy-2-methylphenyl)-N-methyl-3-phenyl-2-(3-(o-tolylsulfonyl)ureido)propanamide], for which the EC50 under setting [1] lay in the range of 100 to 1000 nM.

Regarding `Cc1nn(C)c(Cl)c1S(=O)(=O)NC(=O)N[C@@H](Cc1ccccc1)C(=O)N(C)c1ccc2c(c1)OCO2` [Example 33, (S)—N-(benzo[d][1,3]dioxol-5-yl)-2-(3-((5-chloro-1,3-dimethyl-1H-pyrazol-4-yl)sulfonyl)ureido)-N-methyl-3-phenylpropanamide], the EC50 by setting is: under setting [1], 100 to 1000 nM; under setting [2], 210 nM.

With `CN(C(=O)[C@H](Cc1ccccc1)NC(=O)NS(=O)(=O)c1ccccc1)c1ccc(Cl)cc1` [Example 88], the EC50 is 100 to 1000 nM under setting [1] and 450 nM under setting [2].

With `Cc1ccccc1S(=O)(=O)NC(=O)N[C@@H](Cc1ccccc1C#N)C(=O)N(C)c1ccc2c(c1)OCO2` [Example 77, (S)—N-(benzo[d][1,3]dioxol-5-yl)-3-(2-cyanophenyl)-N-methyl-2-(3-(o-tolylsulfonyl)ureido)propanamide], under setting [1], the EC50 is 1000 to 10000 nM.

Regarding `COC(=O)Nc1ccc(N(C)C(=O)[C@H](Cc2ccccc2)NC(=O)NS(=O)(=O)c2ccccc2C)cc1` [Example CA-93, (S)-methyl (4-(N-methyl-3-phenyl-2-(3-(o-tolylsulfonyl)ureido)propanamido)phenyl)carbamate], under setting [1], the EC50 was less than 100 nM.

`Cc1ccccc1S(=O)(=O)NC(=O)N[C@@H](Cc1ccccc1)C(=O)N(C)c1cccc(F)c1` [Example 168, (S)—N-(3-fluorophenyl)-N-methyl-3-phenyl-2-(3-(o-tolylsulfonyl)ureido)propanamide]: the EC50 under setting [1] is 100 to 1000 nM.

Regarding `Cc1cccc(N(C)C(=O)[C@H](Cc2ccccc2)NC(=O)NS(=O)(=O)c2ccccc2)c1` [Example 90], the EC50 under setting [1] lay within 100 to 1000 nM.

Consider `CN(C(=O)[C@H](Cc1ccccc1)NC(=O)NS(=O)(=O)Cc1ccc(F)cc1)c1ccc2c(c1)OCO2` [Example 110, (S)—N-(benzo[d][1,3]dioxol-5-yl)-2-(3-((4-fluorobenzyl)sulfonyl)ureido)-N-methyl-3-phenylpropanamide], for which the EC50 under setting [1] was in the range of 100 to 1000 nM and the EC50 under setting [2] stood at 160 nM.
